One test has as its target hM2 receptor (Homo sapiens, UniProt P08172). The test is described as follows: Calcium mobilization assay, CHO cells stably expressing hM2-Gqi5. The test is classed as cell-based. An excerpt: Chinese hamster ovary (CHO-K1) cells stably expressing rat (r)M1 were purchased from the American Type Culture Collection and cultured according to their indicated protocol. CHO cells stably expressing human (h)M2, hM3, and hM5 were described previously (Levey et al., 1991); hM1 and hM4 cDNAs were purchased from Missouri S&T cDNA Resource; rM4 cDNA was provided by T. I. Bonner (National Institutes of Health, Bethesda, Md.). hM1, hM4, and rM4 cDNAs were used to stably transfect CHO-K1 cells purchased from the American Type Culture Collection using Lipofectamine2000. […]
For low throughput measurement of agonist-evoked increases in intracellular calcium, CHO-K1 cells stably expressing muscarinic receptors were plated in 100 μL of growth medium at 5×10^4 (rM1, hM3, and hM5) or 6×10^4 cells per well (rM1 Y381A, hM2, and rM4) in Costar 96-well black-walled, tissue culture (TC)-treated, clear-bottom plates (Fisher). […] For calcium fluorescence measurements, CRCs of compounds (50 μl, 2×) were added 19 s after the beginning of data collection via a Flexstation II (Molecular Devices, Sunnyvale, Calif.). Fluorescence imaging continued for a total of 130 s acquisition time using an excitation wavelength of 488 nm, an emission wavelength of 525 nm, and a cutoff wavelength of 515 nm. […]

Another test concerns the target T1, human M1 receptor (Homo sapiens, UniProt P11229).
T1 construct: host or cells: CHO-K1
T1 sequence (P11229 1-460): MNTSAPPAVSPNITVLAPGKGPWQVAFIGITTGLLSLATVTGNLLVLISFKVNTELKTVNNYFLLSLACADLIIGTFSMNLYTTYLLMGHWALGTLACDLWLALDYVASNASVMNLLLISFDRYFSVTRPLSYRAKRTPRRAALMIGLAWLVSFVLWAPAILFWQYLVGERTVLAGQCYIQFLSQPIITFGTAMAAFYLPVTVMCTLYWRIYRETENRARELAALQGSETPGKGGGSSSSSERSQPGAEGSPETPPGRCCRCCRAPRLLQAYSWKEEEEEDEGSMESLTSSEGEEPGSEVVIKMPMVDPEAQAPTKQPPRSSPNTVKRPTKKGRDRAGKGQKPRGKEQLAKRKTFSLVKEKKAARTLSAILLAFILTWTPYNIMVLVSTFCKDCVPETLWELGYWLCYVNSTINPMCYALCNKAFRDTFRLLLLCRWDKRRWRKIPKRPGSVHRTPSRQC
Briefly: Calcium mobilization assay, CHO-K1 cells stably expressing hM1 (high throughput, FDSS 6000). The test is classed as cell-based. Particulars: for Emax: CHO-K1, read-out: Efficacy (% Max ACh). An excerpt: Chinese hamster ovary (CHO-K1) cells stably expressing rat (r)M1 were purchased from the American Type Culture Collection and cultured according to their indicated protocol. CHO cells stably expressing human (h)M2, hM3, and hM5 were described previously (Levey et al., 1991); hM1 and hM4 cDNAs were purchased from Missouri S&T cDNA Resource; rM4 cDNA was provided by T. I. Bonner (National Institutes of Health, Bethesda, Md.). hM1, hM4, and rM4 cDNAs were used to stably transfect CHO-K1 cells purchased from the American Type Culture Collection using Lipofectamine2000. To make stable hM2, hM4 and rM4 cell lines for use in calcium mobilization assays, these cells also were stably transfected with a chimeric G-protein (Gqi5) (provided by B. R. Conklin, University of California, San Francisco) using Lipofectamine 2000. rM1, hM3, and hM5 cells were grown in Ham's F-12 medium containing 10% heat-inactivated fetal bovine serum (FBS), 20 mM HEPES, and 50 μg/mL G418 sulfate. hM2-Gqi5 and hM4-Gqi5 cells were grown in the same medium also containing 500 μg/mL Hygromycin B. Stable rM4-Gqi5 cells were grown in DMEM containing 10% heat-inactivated FBS, 20 mM HEPES, 400 μg/mL G418 sulfate, and 500 μg/mL Hygromycin B. The rat M1 Y381A orthosteric mutant receptor cDNA was generated using the Quik-Change site-directed mutagenesis kit (Stratagene) and verified by sequencing. CHO-K1 cells were stably transfected with this cDNA using Lipofectamine2000 and screened for expression based on calcium mobilization in response to the allosteric M1 agonist N-desmethylclozapine.
For high throughput measurement of agonist-evoked increases in intracellular calcium, CHO-K1 cells stably expressing muscarinic receptors were plated in growth medium lacking G418 and hygromycin at 15,000 cells/20 μL/well (hM1, hM2-Gqi5, hM3, hM4-Gq15, and hM5) in Greiner 384-well black-walled, tissue culture (TC)-treated, clear-bottom plates (VWR). Cells were incubated overnight at 37° C. and 5% CO2. The next day, cells were washed using an ELX 405 (BioTek) with three washes (50 μL) of assay buffer then aspirated to 15 μL. Next, 5 μL of 8 μM Fluo-4/acetoxymethyl ester (Invitrogen, Carlsbad, Calif.) prepared as a 2.3 mM stock in DMSO and mixed in a 1:1 ratio with 10% (w/v) Pluronic F-127 and diluted in assay buffer was added to the wells and the cell plates were incubated for 45 min at 37° C. and 5% CO2. Dye was removed by washing with the ELX 405 (three 50 μL washes of assay buffer) then aspirated to 20 μL. Agonist and compound master plates were formatted in an 11 point CRC format (1:3 dilutions) in 100% DMSO with a starting concentration of 10 mM using the BRAVO liquid handler (Agilent). Test compound CRCs were then transferred to daughter plates ([…]) using the Echo acoustic plate reformatter (Labcyte, Sunnyvale, Calif.) and then diluted into assay buffer (40 μL) to a 2× stock using a Thermo Fisher Combi (Thermo Fisher Scientific, Waltham, Mass.). Calcium flux was measured using the Functional Drug Screening System (FDSS) 6000 (Hamamatsu Corporation, Tokyo, Japan) as an increase in the fluorescent static ratio. 20 μL of Agonist Compounds were applied to cells using the automated system of the FDSS 6000 at 4 s into the 300 s protocol and the data were collected at 1 Hz. Concentration-response curves were generated using a four-parameter logistical equation in XLfit curve fitting software (IDBS, Bridgewater, N.J.) for Excel (Microsoft, Redmond, Wash.) or Prism (GraphPad Software, Inc., San Diego, Calif.).

The structures appear in SMILES notation. Like-named read-outs stand apart in the source and are kept apart here.

hM2 receptor, sequence (P08172 whole entry): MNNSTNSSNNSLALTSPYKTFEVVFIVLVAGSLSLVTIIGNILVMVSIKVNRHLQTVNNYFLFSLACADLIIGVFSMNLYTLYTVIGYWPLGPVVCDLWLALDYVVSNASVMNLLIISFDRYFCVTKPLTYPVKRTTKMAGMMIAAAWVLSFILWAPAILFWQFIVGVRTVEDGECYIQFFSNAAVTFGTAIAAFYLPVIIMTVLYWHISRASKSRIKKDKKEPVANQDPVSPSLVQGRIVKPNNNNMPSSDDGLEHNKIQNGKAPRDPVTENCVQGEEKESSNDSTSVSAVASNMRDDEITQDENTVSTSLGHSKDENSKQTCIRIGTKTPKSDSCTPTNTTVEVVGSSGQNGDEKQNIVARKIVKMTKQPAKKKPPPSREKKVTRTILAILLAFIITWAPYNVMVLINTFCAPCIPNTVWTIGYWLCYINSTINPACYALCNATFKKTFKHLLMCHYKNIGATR

As to `CCOC(=O)N1[C@@H]2CC[C@H]1C[C@H](NCCNC(=O)c1ccccc1)C2` [Example 26, ethyl 3-((3-exo)-(2-benzamidoethyl)amino)-8-azabicyclo[3.2.1]octane-8-carboxylate], the concentration for a half-maximal effect (EC50) at hM2 receptor is over 10000 nM; on human M1 receptor (figure legends FIG. 1.0, 1.1, dose response data, read-out: EC50 for hM1) it was 1200 nM. Moreover, the Emax at human M1 receptor turned out to be 57%.
Regarding `CCOC(=O)N1[C@@H]2CC[C@H]1C[C@@H](NCCNC(=O)c1ccccc1)C2` [Example 27, ethyl 3-((3-endo)-(2-benzamidoethyl)amino)-8-azabicyclo[3.2.1]octane-8-carboxylate], the EC50 at hM2 receptor is about 3000 nM; on human M1 receptor, 214 nM; on human M1 receptor (human M1, agonist-evoked calcium mobilization in CHO-K1 cells, read-out: Potency (EC50)), 210 nM. Moreover, at human M1 receptor, the Emax was determined as 37%.

For the origin of these results see US8697691B2, “Alkyl 3-((2-amidoethyl)amino)-8-azabicyclo[3.2.1]octane-8-carboxylate analogs as selective M1 agonists and methods of making and using same” (Vanderbilt University, priority 2009, dated 2014).
